2 compounds from patent US20260317306A1, “HETEROARYL DERIVATIVE COMPOUND AND USE THEREOF” (S2CBIO INC., priority 2022, published 2026) can be followed below.

This assay has as its target T1, human ANO6 (variant 5) (Homo sapiens, UniProt Q4KMQ2).
T1 construct: expressing human ANO6 (variant 5; NP_001191732.1); expressed in transfected cells; host or cells: Fischer rat thyroid (FRT) cells
T1 sequence (Q4KMQ2 1-931 isoform Q4KMQ2-2): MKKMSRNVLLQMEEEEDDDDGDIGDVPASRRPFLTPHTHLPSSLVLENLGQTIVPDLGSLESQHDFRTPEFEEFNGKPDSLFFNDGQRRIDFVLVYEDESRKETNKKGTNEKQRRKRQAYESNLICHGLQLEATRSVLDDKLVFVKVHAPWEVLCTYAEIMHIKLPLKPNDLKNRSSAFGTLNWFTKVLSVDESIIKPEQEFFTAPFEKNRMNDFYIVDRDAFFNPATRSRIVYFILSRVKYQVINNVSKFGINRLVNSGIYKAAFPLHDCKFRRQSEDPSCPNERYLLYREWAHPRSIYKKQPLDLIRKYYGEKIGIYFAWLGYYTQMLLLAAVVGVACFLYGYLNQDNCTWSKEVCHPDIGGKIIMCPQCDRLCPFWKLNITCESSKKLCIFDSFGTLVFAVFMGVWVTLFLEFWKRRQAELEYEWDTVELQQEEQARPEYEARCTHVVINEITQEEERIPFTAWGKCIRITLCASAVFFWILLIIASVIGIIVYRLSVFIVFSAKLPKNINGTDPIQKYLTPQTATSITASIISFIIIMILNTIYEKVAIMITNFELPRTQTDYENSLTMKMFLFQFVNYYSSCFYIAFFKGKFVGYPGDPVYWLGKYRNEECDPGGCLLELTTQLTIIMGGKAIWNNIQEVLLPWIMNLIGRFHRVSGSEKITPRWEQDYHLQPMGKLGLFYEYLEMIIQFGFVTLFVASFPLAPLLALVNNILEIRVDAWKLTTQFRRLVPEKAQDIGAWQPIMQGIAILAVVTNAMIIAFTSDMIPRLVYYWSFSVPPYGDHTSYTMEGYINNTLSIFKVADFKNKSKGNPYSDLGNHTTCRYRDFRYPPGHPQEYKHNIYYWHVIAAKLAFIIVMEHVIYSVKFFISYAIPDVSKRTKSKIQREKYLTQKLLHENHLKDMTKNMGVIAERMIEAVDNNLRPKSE
Nature of the assay: Lact C2 Assay (Measuring Phosphatidylserine Externalization Scramblase Function), ionomycin-treated Fischer rat thyroid (FRT) cells expressing human ANO6 (variant 5); compounds at 50 nM, 100 nM and 1 μM. In kind it is cell-based. Particulars: 10 μM ionomycin, average of three tests, read-out: % Inhibition (phosphatidylserine externalization inhibitory activity); for inhibition at 0.05 µM: compound at 50 nM; for inhibition at 0.1 µM: compound at 100 nM. As to the method:
Ionomycin (Alomonelab, cat. #I-700), DAPI (Sigma-Aldrich, cat. #D8417), paraformaldehyde (Biosesang, cat. #P2031), Lionheart FX automated fluorescence microscope (BioTek), Gen5™ software program (BioTek), and Image J analysis software program.
Fisher rat thyroid (FRT) cells expressing human ANO6 (variant 5; GenBank accession no. NP_001191732.1) were cultured at 37° C. under 5% Co2 conditions in DMEM/Ham's F-12 (1:1) medium supplemented with 10% Fetal Bovine Serum, 2 mM […], 100 units/mL penicillin, and 100 μg/mL streptomycin.
Fischer Rat Thyroid (FRT) cells (2×10^4 cells/well) expressing human ANO6 (variant 5) were cultured in a 96-well microplate for 24 hours. After the incubation, the cells were treated with compounds dissolved in DMSO to 1% v/v in each well at each concentration (50 nM, 100 nM, and 1 μM) and reacted for 10 minutes. Thereafter, each well was treated with ionomycin to a final concentration of 10 μM, allowed to react for 10 minutes, and then washed with 200 μL PBS. After washing, each well was treated with 50 μL of Lactadherin-C2 (Lact-C2)-GFP mixed in DMEM medium to a final concentration of 500 nM to stain phosphatidylserine, and cultured at 37° C. for 10 minutes. After completion of the reaction, the cells were washed with 200 μL PBS, and fixed with 4% paraformaldehyde for 5 minutes at room temperature. For morphological analysis, DAPI solution was added, and the cells were incubated for 15 minutes, followed by washing with PBS. The fluorescence intensity of Lact-C2-GFP bound to phosphatidylserine on the cell surface was measured using an automated fluorescence microscope. For quantitative analysis of the fluorescence intensity of Lact-C2-GFP, BioTek Gen5™ software and Image J analysis software programs were used.
Phosphatidylserine externalization inhibitory activity (%) by the compound was calculated through the following analysis method. Specifically, the background fluorescence value was subtracted from the measured Lact-C2-GFP fluorescence value, and the fluorescence value of the ionomycin non-treatment group and the ionomycin-treatment group in the same row where each test group was located in a 96-well microplate were calculated. In order to calculate the inhibitory activity (%) by the compound, the relative inhibitory activity was calculated by setting the compound and ionomycin non-treatment group to 100% inhibitory activity and the ionomycin alone treatment group to 0% inhibitory activity. To derive the results, the test was repeated three times, and the average values of the results were classified according to the range below and shown in Table 4 below (A: >60% inhibition, B: 30 to 60% inhibition, N/A: no test).

As a reminder, the inhibition is the change of the read-out against control, counted positive when it falls. Regarding `Fc1ccc2nc(-c3cccc(Nc4ccc(-c5cccnn5)cn4)c3)[nH]c2c1` [Example 55], the inhibition at 0.05 µM was greater than 60% and the inhibition at 0.1 µM is greater than 60%.
Consider `c1cc(Nc2ncc(-c3ccncn3)cn2)cc(-c2nc3ccccc3[nH]2)c1` [Example 76, N-[3-(1H-benzo[d]imidazol-2-yl)phenyl]-[4,5′-bipyrimidin]-2′-amine], for which the inhibition at 0.05 µM lay in the range of 30 to 60% and the inhibition at 0.1 µM is greater than 60%.
